According to publication PMC9487510, “A Novel Oral GyrB/ParE Dual Binding Inhibitor Effective against Multidrug-Resistant Neisseria gonorrhoeae and Other High-Threat Pathogens” (Antimicrobial Agents and Chemotherapy, 2022):
Read-outs that look alike come from different tables or passages of the source.

Legend:
[1] = system: VRSA; test: MIC, in vitro susceptibility testing (CLSI); format: cell-based, Staphylococcus aureus; settings: for MIC: Staphylococcus aureus, VRSA
[2] = Liver microsome stability, human; format: in vitro ADME; settings: liver microsomes
Procedure: Liver microsome stability assays were performed by BioDuro Inc. Human and mouse (CD-1 male) liver microsomes were used. […] Next, 50 μL of reaction buffer was added to solution and mixed via pipetting up and down 6 times. At each time point of 0, 30, and 60 min, an aliquot of 20 μL was removed from each tube. Liver microsomes (LM) working solution was prepared in 0.05 M phosphate reaction buffer (pH = 7.4) to a final concentration of 1.27 mg/mL. NADPH solution was prepared in 0.05 M phosphate buffer to afford a 5 mM buffer solution. […] After vortexing and incubating for 5 min (37°C), 50 μL of NADPH solution was added and mixed via pipetting. At each time point of 0, 5, 15, 30, and 60 min, an aliquot of 20 μL was removed from each tube. Next, 250 μL of quenching solution was aliquoted to quench the reaction, which was then vortexed for 1 min and placed on ice for 40 min. After centrifugation at 4,000 × g for 15 min, 100 μL of supernatant was transferred using a multichannel pipette to 0.65-mL tubes. Samples were diluted with MeOH: H2O (1:1) as necessary. Samples were analyzed by high-pressure liquid chromatography coupled to tandem mass spectrometry (LC/MS/MS) performed on a Sciex Applied Biosystems Qtrap 4000 triple-quadrupole mass spectrometer coupled to a Shimadzu HPLC system to quantify the remaining compound. […]

[3] = Liver microsome stability, mouse; format: in vitro ADME; settings: male, CD-1, mouse, liver microsomes, pH 7.4
Procedure: Liver microsome stability assays were performed by BioDuro Inc. Human and mouse (CD-1 male) liver microsomes were used. […] Next, 50 μL of reaction buffer was added to solution and mixed via pipetting up and down 6 times. At each time point of 0, 30, and 60 min, an aliquot of 20 μL was removed from each tube. Liver microsomes (LM) working solution was prepared in 0.05 M phosphate reaction buffer (pH = 7.4) to a final concentration of 1.27 mg/mL. NADPH solution was prepared in 0.05 M phosphate buffer to afford a 5 mM buffer solution. […] After vortexing and incubating for 5 min (37°C), 50 μL of NADPH solution was added and mixed via pipetting. At each time point of 0, 5, 15, 30, and 60 min, an aliquot of 20 μL was removed from each tube. Next, 250 μL of quenching solution was aliquoted to quench the reaction, which was then vortexed for 1 min and placed on ice for 40 min. After centrifugation at 4,000 × g for 15 min, 100 μL of supernatant was transferred using a multichannel pipette to 0.65-mL tubes. Samples were diluted with MeOH: H2O (1:1) as necessary. Samples were analyzed by high-pressure liquid chromatography coupled to tandem mass spectrometry (LC/MS/MS) performed on a Sciex Applied Biosystems Qtrap 4000 triple-quadrupole mass spectrometer coupled to a Shimadzu HPLC system to quantify the remaining compound. Data were processed using Analyst software (version 1.4.2; Applied Biosystems Sciex). […] Metabolite identification on the microsomal extracts was performed using a Q-Exactive HRMS coupled with an Ultimate 3000 HPLC system and a Kinetix C18 2.1 × 50-mm 2.6-μm HPLC column.

[4] = system: N. gonorrhoeae clinical isolates; test: MIC, agar dilution (CLSI); format: cell-based, Neisseria gonorrhoeae; settings: for MIC: read-out: MIC

CNc1cc(F)cc2c1[nH]c1nc(Oc3cnc(C)nc3)nc(N3CCC4(CC3)CO[C@@H](CO)C4)c12 [JSF-2414]
0.5 ng/mL: MIC ([4]; Neisseria gonorrhoeae, strain CDC78 (GCREF2013 026))
0.5 to 30 ng/mL: MIC range ([4]; 96 clinical isolates)
0.016 µg/mL: MIC ([1]; strain 2 25 23)
2.1 µL/min/mg: microsomal CLint at 1 μM ([2]; pH 7.4, read-out: HLM Clint)
0.016 to 0.031 µg/mL: MIC ([1]; strain 2 25 24) | MIC ([1]; strain 2 25 25)
3.9 ng/mL: MIC ([4]; Neisseria gonorrhoeae, ATCC700825, antibiotic-susceptible strain ATCC 700825) | MIC ([4]; Neisseria gonorrhoeae, strain CDC1 (GCREF2012 016)) | MIC ([4]; Neisseria gonorrhoeae, strain CDC2 (GCREF2012 045)) | MIC ([4]; Neisseria gonorrhoeae, strain CDC3 (GCREF2013 013)) | MIC ([4]; Neisseria gonorrhoeae, strain CDC4 (GCREF2013 030)) | MIC ([4]; Neisseria gonorrhoeae, strain CDC5 (GCREF2012 001)) | MIC ([4]; Neisseria gonorrhoeae, strain CDC9 (GCREF2012 005)) | MIC ([4]; Neisseria gonorrhoeae, strain CDC10 (GCREF2012 006)) | MIC ([4]; Neisseria gonorrhoeae, strain CDC11 (GCREF2012 007)) | MIC ([4]; Neisseria gonorrhoeae, strain CDC12 (GCREF2012 008)) | MIC ([4]; Neisseria gonorrhoeae, strain CDC13 (GCREF2012 009)) | MIC ([4]; Neisseria gonorrhoeae, strain CDC14 (GCREF2012 010)) | MIC ([4]; Neisseria gonorrhoeae, strain CDC19 (GCREF2012 015)) | MIC ([4]; Neisseria gonorrhoeae, strain CDC21 (GCREF2012 018)) | MIC ([4]; Neisseria gonorrhoeae, strain CDC24 (GCREF2012 021)) | MIC ([4]; Neisseria gonorrhoeae, strain CDC25 (GCREF2012 022)) | MIC ([4]; Neisseria gonorrhoeae, strain CDC27 (GCREF2012 024)) | MIC ([4]; Neisseria gonorrhoeae, strain CDC28 (GCREF2012 025)) | MIC ([4]; Neisseria gonorrhoeae, strain CDC34 (GCREF2012 031)) | MIC ([4]; Neisseria gonorrhoeae, strain CDC35 (GCREF2012 032)) | MIC ([4]; Neisseria gonorrhoeae, strain CDC37 (GCREF2012 034)) | MIC ([4]; Neisseria gonorrhoeae, strain CDC38 (GCREF2012 035)) | MIC ([4]; Neisseria gonorrhoeae, strain CDC39 (GCREF2012 036)) | MIC ([4]; Neisseria gonorrhoeae, strain CDC40 (GCREF2012 037)) | MIC ([4]; Neisseria gonorrhoeae, strain CDC41 (GCREF2012 038)) | MIC ([4]; Neisseria gonorrhoeae, strain CDC42 (GCREF2012 039)) | MIC ([4]; Neisseria gonorrhoeae, strain CDC43 (GCREF2012 040)) | MIC ([4]; Neisseria gonorrhoeae, strain CDC46 (GCREF2012 043)) | MIC ([4]; Neisseria gonorrhoeae, strain CDC47 (GCREF2012 044)) | MIC ([4]; Neisseria gonorrhoeae, strain CDC48 (GCREF2012 046)) | MIC ([4]; Neisseria gonorrhoeae, strain CDC49 (GCREF2012 047)) | MIC ([4]; Neisseria gonorrhoeae, strain CDC51 (GCREF2012 049)) | MIC ([4]; Neisseria gonorrhoeae, strain CDC52 (GCREF2012 050)) | MIC ([4]; Neisseria gonorrhoeae, strain CDC54 (GCREF2012 052)) | MIC ([4]; Neisseria gonorrhoeae, strain CDC56 (GCREF2013 002)) | MIC ([4]; Neisseria gonorrhoeae, strain CDC57 (GCREF2013 003)) | MIC ([4]; Neisseria gonorrhoeae, strain CDC70 (GCREF2013 018)) | MIC ([4]; Neisseria gonorrhoeae, strain CDC79 (GCREF2013 027)) | MIC ([4]; Neisseria gonorrhoeae, strain CDC80 (GCREF2013 028)) | MIC ([4]; Neisseria gonorrhoeae, strain CDC81 (GCREF2013 029)) | MIC ([4]; Neisseria gonorrhoeae, strain CDC87 (GCREF2013 036)) | MIC ([4]; Neisseria gonorrhoeae, strain CDC89 (GCREF2013 038)) | MIC ([4]; Neisseria gonorrhoeae, strain CDC92 (GCREF2013 041)) | MIC ([4]; Neisseria gonorrhoeae, strain CDC93 (GCREF2013 042)) | MIC ([4]; Neisseria gonorrhoeae, strain CDC97 (GCREF2013 047)) | MIC ([4]; Neisseria gonorrhoeae, strain CDC100 (GCREF2013 015)) | MIC50 ([4]; Neisseria gonorrhoeae, 96 clinical isolates, read-out: MIC50)
58.2 min: half-life at 1 μM ([3]; read-out: MLM t1/2)
11.9 µL/min/mg: microsomal CLint at 1 μM ([3]; read-out: MLM Clint)
330 min: half-life at 1 μM ([2]; pH 7.4, read-out: HLM t1/2)
2 ng/mL: MIC ([4]; Neisseria gonorrhoeae, strain CDC8 (GCREF2012 004)) | MIC ([4]; Neisseria gonorrhoeae, strain CDC36 (GCREF2012 033)) | MIC ([4]; Neisseria gonorrhoeae, strain CDC58 (GCREF2013 004)) | MIC ([4]; Neisseria gonorrhoeae, strain CDC59 (GCREF2013 044)) | MIC ([4]; Neisseria gonorrhoeae, strain CDC68 (GCREF2013 016)) | MIC ([4]; Neisseria gonorrhoeae, strain CDC69 (GCREF2013 017)) | MIC ([4]; Neisseria gonorrhoeae, strain CDC96 (GCREF2013 046))
30 ng/mL: MIC ([4]; Neisseria gonorrhoeae, strain CDC22 (GCREF2012 019))
16 ng/mL: MIC ([4]; Neisseria gonorrhoeae, strain CDC20 (GCREF2012 017)) | MIC ([4]; Neisseria gonorrhoeae, strain CDC62 (GCREF2013 007)) | MIC ([4]; Neisseria gonorrhoeae, strain CDC64 (GCREF2013 009)) | MIC ([4]; Neisseria gonorrhoeae, strain CDC66 (GCREF2013 011)) | MIC ([4]; Neisseria gonorrhoeae, strain CDC71 (GCREF2013 019)) | MIC ([4]; Neisseria gonorrhoeae, strain CDC73 (GCREF2013 021)) | MIC ([4]; Neisseria gonorrhoeae, strain CDC74 (GCREF2013 022)) | MIC ([4]; Neisseria gonorrhoeae, strain CDC83 (GCREF2013 032))
7.8 ng/mL: MIC ([4]; Neisseria gonorrhoeae, multidrug-resistant strain H041) | MIC ([4]; Neisseria gonorrhoeae, strain CDC6 (GCREF2012 002)) | MIC ([4]; Neisseria gonorrhoeae, strain CDC15 (GCREF2012 011)) | MIC ([4]; Neisseria gonorrhoeae, strain CDC16 (GCREF2012 012)) | MIC ([4]; Neisseria gonorrhoeae, strain CDC18 (GCREF2012 014)) | MIC ([4]; Neisseria gonorrhoeae, strain CDC23 (GCREF2012 020)) | MIC ([4]; Neisseria gonorrhoeae, strain CDC26 (GCREF2012 023)) | MIC ([4]; Neisseria gonorrhoeae, strain CDC29 (GCREF2012 026)) | MIC ([4]; Neisseria gonorrhoeae, strain CDC30 (GCREF2012 027)) | MIC ([4]; Neisseria gonorrhoeae, strain CDC31 (GCREF2012 028)) | MIC ([4]; Neisseria gonorrhoeae, strain CDC32 (GCREF2012 029)) | MIC ([4]; Neisseria gonorrhoeae, strain CDC33 (GCREF2012 030)) | MIC ([4]; Neisseria gonorrhoeae, strain CDC45 (GCREF2012 042)) | MIC ([4]; Neisseria gonorrhoeae, strain CDC50 (GCREF2012 048)) | MIC ([4]; Neisseria gonorrhoeae, strain CDC53 (GCREF2012 051)) | MIC ([4]; Neisseria gonorrhoeae, strain CDC55 (GCREF2013 001)) | MIC ([4]; Neisseria gonorrhoeae, strain CDC60 (GCREF2013 005)) | MIC ([4]; Neisseria gonorrhoeae, strain CDC61 (GCREF2013 006)) | MIC ([4]; Neisseria gonorrhoeae, strain CDC63 (GCREF2013 008)) | MIC ([4]; Neisseria gonorrhoeae, strain CDC65 (GCREF2013 010)) | MIC ([4]; Neisseria gonorrhoeae, strain CDC67 (GCREF2013 014)) | MIC ([4]; Neisseria gonorrhoeae, strain CDC72 (GCREF2013 020)) | MIC ([4]; Neisseria gonorrhoeae, strain CDC75 (GCREF2013 023)) | MIC ([4]; Neisseria gonorrhoeae, strain CDC76 (GCREF2013 024)) | MIC ([4]; Neisseria gonorrhoeae, strain CDC77 (GCREF2013 025)) | MIC ([4]; Neisseria gonorrhoeae, strain CDC82 (GCREF2013 031)) | MIC ([4]; Neisseria gonorrhoeae, strain CDC84 (GCREF2013 033)) | MIC ([4]; Neisseria gonorrhoeae, strain CDC86 (GCREF2013 035)) | MIC ([4]; Neisseria gonorrhoeae, strain CDC88 (GCREF2013 037)) | MIC ([4]; Neisseria gonorrhoeae, strain CDC90 (GCREF2013 039)) | MIC ([4]; Neisseria gonorrhoeae, strain CDC91 (GCREF2013 040)) | MIC ([4]; Neisseria gonorrhoeae, strain CDC94 (GCREF2013 043)) | MIC ([4]; Neisseria gonorrhoeae, strain CDC95 (GCREF2013 045)) | MIC ([4]; Neisseria gonorrhoeae, strain CDC98 (GCREF2013 048)) | MIC ([4]; Neisseria gonorrhoeae, strain CDC99 (GCREF2013 012)) | MIC90 ([4]; Neisseria gonorrhoeae, 96 clinical isolates, read-out: MIC90)
0.0156 to 0.031 µg/mL: MIC range ([1]; N = 7 (Van: 9)) | MIC ([1]; strain 2 25 26) | MIC ([1]; strain 2 25 28)
0.031 µg/mL: MIC ([1]; strain 2 25 27) | MIC ([1]; strain VRS2 (VRS-2))
